Source: patent US5886011A, “Piperidine derivatives as substance P antagonists” (Hisamitsu Pharmaceutical Co., Inc., priority 1995, dated 1999)

What was measured:
[1] = system: Substance P; assay: Antagonism test on Substance P-induced airway edema; assay type: in vivo, guinea pig (hartley male); settings: Cavia porcellus, po, compared to the control group, read-out: Inhibition Rate (airway edema, dye transudated into trachea and main bronchi); for inhibition in vivo at 1 mg/kg: 1 mg/kg orally, thirty minutes before induction
Procedure: C. Antagonism Test on Substance P-induced Airway Edema
20 mg/kg of Evans' Blue and 1 nm/kg Substance P containing 200 I.U./kg of heparin were administered intravenously to hartley male guinea pigs in order to induce airway edema. After ten minutes, the guinea pigs were exsanguinated deadly. The amounts of the dye transudated into trachea and main bronchi were determined. 1 mg/kg of the subject compounds were administered orally at thirty minutes before the induction. […] Further, for comparison, the following compounds A and B were used.

[2] = system: cisplatin-induced emesis; assay: Anti-emetic effect against cisplatin-induced emesis; assay type: in vivo, ferret (male)
Procedure: D. Anti-emetic Effect against Cisplatin-induced Emesis
The test was carried out using male ferret (approx. 1.5 kg.). Emesis was induced by intraperitoneal administration of cisplatin (10 mg/kg). 1 mg/kg of the subject compounds were administered orally just after the cisplatin administration. The results will be shown in Table 3 as the inhibition rates compared to the control group, using the number of vomits as indexes. Further, for comparisons, the following compounds A and C were used.

[3] = target: T1, Substance P receptor (guinea pig ileum longitudinal muscle) (Cavia porcellus, UniProt P30547); assay: Receptor-binding test ([125I]SP ligand, guinea pig ileum longitudinal muscle receptor samples); settings: 10^-8 M compound; [125I]SP 50 pM, 22° C., 20 minutes
T1 construct: ileum was removed and the longitudinal muscle was stripped off; from tissue; host or cells: guinea pig ileum longitudinal muscle, washed membrane pellets
T1 sequence (P30547 whole entry): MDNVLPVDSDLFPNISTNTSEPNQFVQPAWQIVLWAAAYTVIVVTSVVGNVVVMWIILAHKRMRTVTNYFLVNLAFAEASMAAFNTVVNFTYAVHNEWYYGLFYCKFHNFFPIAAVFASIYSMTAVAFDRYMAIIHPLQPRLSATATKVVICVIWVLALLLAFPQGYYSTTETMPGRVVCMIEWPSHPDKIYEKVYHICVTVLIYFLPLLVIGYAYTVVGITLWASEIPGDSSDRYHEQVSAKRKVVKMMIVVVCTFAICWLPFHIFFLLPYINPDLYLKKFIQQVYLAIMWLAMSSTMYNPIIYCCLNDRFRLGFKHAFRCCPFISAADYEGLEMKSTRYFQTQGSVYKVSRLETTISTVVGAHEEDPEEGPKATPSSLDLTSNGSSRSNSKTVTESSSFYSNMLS
Procedure: To the longitudinal muscles, 20 times of the wet weight of the buffer solution (1) (50 mM tris-HCl buffer solution containing 2 mM MgCl2 and 0.1 mM phenyl methyl sulfonyl-fluoride, pH 7.4) was added. The mixture was homogenized under ice-cooling and centrifuged at 48,000×G for 15 minutes. After removing the supernatant, the pellets were re-suspended in the buffer solution (1) and centrifuged at 48,000×G for 15 minutes. The buffer solution (2) (50 mM tris.HCl buffer solution containing 10 mM ethylenediaminetetraacetic acid and 300 mM KCl, pH 7.4) was added to the pellets and suspended to be reacted under ice-cooling for 60 minutes. The resulted reaction materials were centrifuged at 48,000×G for 15 minutes. After suspending the pellets in the buffer solution (1) and distributing, the mixture were centrifuged at 48,000×G for 15 minutes. The pellets were stored at -80° C. until used as receptor samples.
Thus obtained receptor samples were suspended in 50 mM tris-HCl buffer solution to be used. As the buffer solution, binding buffer solution (tris.HCl buffer solution containing 0.02% bovine serum albumin, 40 μg/ml bacitracin, 4 μg/ml chymostatin, 4 μg/ml leupeptin and 3 mM MnCl2, pH7.4) was used.

[4] = system: Substance P (guinea pig ileum); assay: Bioassay test: Substance P-induced contraction of guinea pig ileum strips; settings: 10^-7 M compound; contraction by 10^-8 M Substance P regarded as 100%
Procedure: B. Bioassay Test […] After exsanguinating guinea pigs (body weight: 500-600 g) deadly, ileum was removed and 2 cm of ileum strips were prepared. In a Tyrode's solution (10 ml, 37° C.) in which air is passed, containing 5.2 μM atropine and 4.1 μM indomethacin, the strips having 0.5 g resting tension was suspended, and contractions of muscle were recorded on a recording device (RTA-1200, manufactured by Nihon Kohden) via an isotonic transducer (TB-612T, manufactured by Nihon Kohden). Using three specimens per one group, effects of the subject drugs on the muscle contraction caused by 10^-8 M Substance P were determined.

[5] = system: SD rats; assay: Toxicity test, seven days; assay type: in vivo, rat (male SD); settings: 3, 10 and 30 mg/kg, male SD rats
Procedure: 3, 10 and 30 mg/kg of the compound of Example 46 are administered to five male SD rats per one group for seven days. The compound had no influence on body weights gains, organ weights, numbers of erythrocytes nor numbers of leukocytes.

[6] = 1 mg/kg orally just after cisplatin (10 mg/kg i.p.), compared to the control group

SMILES: COc1ccccc1CN[C@H]1CCCN[C@H]1c1ccccc1.Cl [Compound A, (2S,3S)-3-(2-methoxybenzyl)amino-2-phenylpiperidine hydrochloride, reference compound]
- inhibition in vivo at 10 mg/kg ([1]; 10 mg/kg (comparison compound), orally): 12%
- Inhibition Rate (number of vomits) ([2]; 10 mg/kg (comparison compound), orally just after cisplatin (10 mg/kg i.p.)): 19%

SMILES: COc1ccc(C(C)C)cc1CN[C@@H]1CN2CCC1CC2.Cl [Compound C, (2S,3S)-N-(5-isopropyl-2-methoxyphenyl)methyl-1-azabicyclo[2,2,2]octane-3-amine hydrochloride, reference compound]
- Inhibition Rate (number of vomits) [2, 6]: 10%

SMILES: CC(C)c1cc2c(c(CN[C@H]3CCCN[C@H]3c3ccccc3)c1)OCC2.Cl [Example 23, (2S,3S)-3-[(5-isopropyl-2,3-dihydrobenzofuran-7-yl)methyl]amino-2-phenylpiperidine hydrochloride]
- inhibition at 0.01 µM [3]: 83.2%
- Contriction Inhibition [4]: 80.3%
- inhibition in vivo at 1 mg/kg [1]: 89%
- Inhibition Rate (number of vomits) [2, 6]: 70%

SMILES: Cl.c1ccc([C@@H]2NCCC[C@@H]2NCc2cc(C3CCCC3)cc3c2OCC3)cc1 [Example 25, (2S,3S)-3-[(5-cyclopentyl-2,3-dihydrobenzofuran-7-yl)methyl]amino-2-phenylpiperidine hydrochloride]
- inhibition at 0.01 µM [3]: 89.2%
- Contriction Inhibition [4]: 85.1%
- inhibition in vivo at 1 mg/kg [1]: 90%
- Inhibition Rate (number of vomits) [2, 6]: 73%

SMILES: CSc1cc2c(c(CN[C@H]3CCCN[C@H]3c3ccccc3)c1)OCC2.Cl [Example 46, (2S,3S)-3-[(5-methylthio-2,3-dihydrobenzofuran-7-yl)methyl]amino-2-phenylpiperidine hydrochloride]
- inhibition at 0.01 µM [3]: 65.3%
- Contriction Inhibition [4]: 72.3%
- inhibition in vivo at 1 mg/kg [1]: 72%
- Inhibition Rate (number of vomits) [2, 6]: 60%
- influence on body weights gains [5]: no influence
- influence on numbers of erythrocytes [5]: no influence
- influence on numbers of leukocytes [5]: no influence
- influence on organ weights [5]: no influence

SMILES: Cl.FC(F)(F)Oc1cc2c(c(CN[C@H]3CCCN[C@H]3c3ccccc3)c1)OCC2 [Example 53, (2S,3S)-3-[(5-trifluoromethoxy-2,3-dihydrobenzofuran-7-yl)methyl]amino-2-phenylpiperidine hydrochloride]
- inhibition at 0.01 µM [3]: 53.5%
- Contriction Inhibition [4]: 69.3%
- inhibition in vivo at 1 mg/kg [1]: 69%
- Inhibition Rate (number of vomits) [2, 6]: 65%
